# In paper PMC3788796, “The Antimicrobial Domains of Wheat Puroindolines Are Cell-Penetrating Peptides with Possible Intracellular Mechanisms of Action” (PLoS ONE, 2013):
# “And” between values parts separate entries of the source, which are not always exact repeats. Identical values can stand only once.
# How the values were obtained:
# [1] = system: Saccharomyces cerevisiae (ATCC 287); experiment: MIC of the peptides against yeast cells; format: cell-based; conditions: PDB, 96-well two-fold dilution 250 to 2 µg/mL, 0.5–2×10^3 cells/mL, overnight 30°C, growth observed visually
# Procedure: Saccharomyces cerevisiae (ATCC 287) was grown in Potato Dextrose Broth (PDB) overnight at 30°C with shaking at 220 rpm. The cultures were vortexed vigorously and the cell suspension adjusted to 1–5×10^6 cells/mL with PDB (McFarland standard 0.5) and then diluted 1∶200 with PDB to a final concentration of 0.5–2×10^3 cells/mL [37]. The MIC assays were carried out in 96-well plates as described previously. Peptides (PuroA, Pina-M, Pina-W→F and PuroB) in 25 µL volumes were added to the first empty well and a two-fold dilution was carried out across each row with a starting peptide concentration of 250 µg/mL and a final one of 2 µg/mL. Test wells were subsequently inoculated with 75 µL yeast cells (0.5–2×10^3 cells/mL) and incubated overnight at 30°C. Negative control (no peptide) and positive control (fungicide Mycobutanil) wells were also prepared. The MIC was defined as the lowest concentration of the peptide required to inhibit fungal growth, observed visually.
# S. cerevisiae cells = experiment: Propidium iodide uptake by yeast cells; format: cell-based, Saccharomyces cerevisiae; conditions: peptide 125 µg/mL, 1 h 30°C in PBS pH 7.4, PI 6 µg/mL 5 min; no-peptide control 5.7; average of 4 fields, two independent experiments
# Procedure: S. cerevisiae was grown overnight at 30°C in 100 mL PDB and the cells collected by centrifugation and resuspended in Phosphate Buffered Saline (PBS: 137 mM NaCl, 2.7 mM KCl, 8 mM Na2HPO4, 1.46 mM KH2PO4; pH 7.4) to ∼1.5×10^7 cells/mL (OD600 = 0.6–0.8). 75 µL of the suspension was incubated with 25 µL of stock solutions of PuroA, Pina-M, Pina-W→F, PuroB and indolicidin (to give a final peptide concentration of 64, 125, 250 or 500 µg/mL), or with PBS (for no-peptide controls) for 1 h at 30°C, followed by staining with propidium iodide (PI) as described. PI stock solution (60 µg/mL) was prepared in MilliQ water and stored in dark at −20°C. It was diluted to 12 µg/mL before use, mixed 1∶1 with peptide-treated or untreated yeast cells (to final PI concentration 6 µg/mL), and the samples incubated in the dark for 5 min. A 10 µL aliquot of these was examined using a Nikon Eclipse 50 i fluorescence microscope with 561 nm excitation and 630/22 emission filter, at 400×magnification. The photomicrographs were taken under light and fluorescence for each field. Five randomly selected fields were recorded and scored for each sample.
# [2] = system: plasmid DNA (pBluescript SK+); experiment: Gel retardation assay for in vitro DNA binding; conditions: 100 ng plasmid DNA in 10 µL MilliQ water, 1 h room temperature, peptide 16–500 µg/mL, post-electrophoresis EtBr staining, triplicate assays; for Peptide concentration inducing gel retardation, Full: complete inhibition of migration
# Procedure: This test assesses any peptide-DNA binding by noting the retardation of the rate of migration of DNA bands through agarose gels. A number of methods were tested. As per Hsu et al., DNA of a plasmid (200 ng) or a commercial molecular weight marker (50 ng) was mixed with a peptide (to final concentrations of 32, 64, 125 or 250 µg/mL) in 15 µL of 10 mM Tris-1 mM EDTA buffer (pH 8.0), incubated at room temperature for 2 min, then electrophoresed in 0.5% or 1.0% agarose gels containing 0.5 µg/mL ethidium bromide (EtBr). Following Park et al., 100 ng plasmid DNA was mixed with a peptide (to different concentrations) in 20 µL binding buffer (5% glycerol, 10 mM Tris-HCl (pH 8.0), 1 mM EDTA, 1 mM DTT, 20 mM KCl, 50 µg/mL BSA), held for 1 h at room temperature, then electrophoresed in EtBr-containing gels. Finally the protocols were modified to eliminate any interference of EtBr in the initial peptide-DNA binding. Plasmid DNA (100 ng) was mixed with a peptide (to final concentrations of 16, 32, 64, 125, 250 or 500 µg/mL) in 10 µL of MilliQ water, held at room temperature for 1 h and electrophoresed, followed by emersion of gels in EtBr solution (0.5 µg/mL) for 30 min before imaging.
# E. coli (ATCC 25922) = experiment: E. coli filamentation assay (in vivo inhibition of DNA synthesis); format: cell-based, Escherichia coli; conditions: peptide 2–250 µg/mL, 3 h 37°C, Crystal Violet, light microscopy 1000×; triplicate
# Procedure: The method as described was used to assess if the PIN-based peptides cause filamentation of E. coli cells, indicative of inhibition of in vivo DNA synthesis. E. coli (ATCC 25922) grown to logarithmic phase (OD600 = 0.2) was diluted to OD600 of ∼0.04. 75 µL of this culture was mixed with 25 µL of a peptide solution (to a final peptide concentration of 2–250 µg/mL) and incubated for 3 h at 37°C. 50 µL of the sample was spotted onto a glass slide, air dried, and stained with Crystal Violet for 1 min. Peptide mixed with water was used as negative control, and the Trp-rich AMP indolicidin (ILPWKWPWWPWRR-NH2) was used as a positive control due to its known filamentation effect. All samples were tested in triplicate. The cells were observed by light microscopy (1000×magnification).
# E. coli cells = conditions: data from previous work; cited from earlier work
# [3] = Calcein dye leakage from bacteria-mimicking LUVs; format: biochemical; conditions: positive control, 1.0% Triton X100; average of duplicate experiments
# Procedure: (§1) A calcein leakage assay as previously described was performed to determine the effects of PIN-based peptides on the permeability of synthetic large unilamellar vesicles (LUVs), designed to mimic bacterial and mammalian cell membranes. The phospholipids used were DOPC (1,2-dioleoyl-sn-glycero-3-phosphocholine), with zwitterionic head groups and DOPG (1,2-dioleoyl-sn-glycerol-3-[phosphor-rac-(1-glycerol)]), with negatively charged headgroups (Avanti® Polar lipids, Alabaster, USA). These were used to make DOPC:DOPG (1∶3) LUVs to mimic bacterial cell membranes, or DOPC only, to mimic mammalian cell membranes. Calcein-entrapped LUVs were prepared by the extrusion method using an Avanti mini extrusion apparatus (Avanti® Polar Lipids, Alabaster, USA). The DOPC:DOPG (a 1∶3 mixture) or DOPC were dissolved in chloroform (25 mg/mL) and aliquoted into glass test tubes to give a concentration of 2.6 mM when resuspended in 2 mL buffer. Chloroform was evaporated under a stream of N2 and the lipid films were dried overnight under vacuum. The films were then resuspended in 2.0 mL of 70 mM calcein buffer (in 10 mM Tris-HCl, pH 7.4) and incubated at room temperature for 30 minutes. To increase entrapment of the dye, five repeated freeze\thaw cycles were used by placing the vial in liquid N2 and then a warm water bath (37°C). The lipid mixture was then extruded through the mini-extruder 10 times through two stacked 0.1 µm pore-size filters. Free calcein was removed by centrifugation (10, 000×g, 10 min) three times and washing with 10 mM Tris, 100 mM NaCl buffer (pH 7.4). Standards of phosphorus (inorganic P; Pi) were prepared (0.05–1.5 mg/mL) using KH2PO4 and read at 820 nm and a linear standard curve was generated (Figure S1 in File S1). The phospholipid concentration of the vesicle preparations was determined by a total phosphorus assay. The assay reagent was prepared fresh by mixing 1 part of 1% ascorbic acid with 6 parts of 0.42% ammonium molybdate•4H2O in H2SO4 and stored on ice. 7 µL of it was added to 3 µL of vesicle suspensions and incubated for 20 min at 45°C. […] The standard curve of phosphorus standards (Figure S1 in File S1) was used to determine the Pi concentration in a LUV preparation, and this was converted to phospholipid concentration (Table S1 in File S1) to adjust the preparations to the required 10 µM phospholipid concentration prior to peptide treatment.
# (§2) The calcein-filled LUVs were diluted with 10 mM Tris, 100 mM NaCl buffer (pH 7.4) to a final phospholipid concentration of 10 µM. The experiments were performed in a Varian Cary Eclipse fluorescence spectrophotometer with excitation and emission wavelengths of 496 nm and 515 nm, slit widths of […] and a PMT detector of 600 V. The peptides (PuroA, Pina-M, Pina-W→F and PuroB) were added to LUVs to a final peptide concentration of 8–125 µg/mL in 100 µL volumes and the fluorescence (F) monitored for 5 min at 60 s intervals. The total calcein fluorescence (FT) was determined by addition of 1.0% Triton X100. The dye leakage was calculated as % Leakage = ((F – F0)/(FT – F0)), F0 being fluorescence of each sample at T = 0.
# [4] = Calcein dye leakage from mammalian-mimicking LUVs; format: biochemical; conditions: positive control, 1.0% Triton X100; average of duplicate experiments
# Procedure: as §1, §2
Compound,MIC against S. cerevisiae [1] [µg/mL],% fluorescent cells (propidium iodide uptake) (S. cerevisiae cells) [%],"Peptide concentration inducing gel retardation, Partial [2] [µg/mL]","Peptide concentration inducing gel retardation, Full [2]","Peptide concentration inducing gel retardation, Full ([2]; listed as indolicidin) [µg/mL]",Minimum peptide concentration inducing filamentation in E. coli (E. coli (ATCC 25922)) [µg/mL],MIC against E. coli cells (E. coli cells) [µg/mL],% Calcein leakage from DOPC:DOPG LUVs [3] [%],% Calcein leakage from DOPC LUVs [4] [%]
"CC[C@H](C)[C@H](N)C(=O)N[C@@H](CC(C)C)C(=O)N1CCC[C@H]1C(=O)N[C@@H](Cc1c[nH]c2ccccc12)C(=O)N[C@@H](CCCCN)C(=O)N[C@@H](Cc1c[nH]c2ccccc12)C(=O)N1CCC[C@H]1C(=O)N[C@@H](Cc1c[nH]c2ccccc12)C(=O)N[C@@H](Cc1c[nH]c2ccccc12)C(=O)N1CCC[C@H]1C(=O)N[C@@H](Cc1c[nH]c2ccccc12)C(=O)N[C@@H](CCCNC(=N)N)C(=O)N[C@@H](CCCNC(=N)N)C(N)=O [Indolicidin, reference compound]",125,100,32 ± 0,64 ± 0 µg/mL,64,32 ± 0,32 ± 0,,
"MPLSWFFPRTWGKR-NH2 [GSP-5D, peptide based on the wheat Grain softness protein-1 (Gsp-1-5D)]",,,32 ± 0,64 µg/mL and 64 ± 0 µg/mL,,,64 ± 0,,
Triton x100 [reference compound],,,,,,,,99.0,99.0
